One experiment relates to MOLT-4. In words: Growth inhibition of human MOLT4 cells after 5 days by MTT assay. It is filed as cell-based. The note with it: MOLT-4, 120 h.
For experiment [1], the system named is Human immunodeficiency virus 1. In words: Growth inhibition of HIV1 3B infected human MOLT4 cells after 5 days by MTT assay. It is filed as functional, organism-based. The settings on record: Human immunodeficiency virus 1, 3B, MOLT-4, 120 h.

Each structure is given as a SMILES string.

The IC50 is the midpoint of a concentration-inhibition curve. Read a high IC50 as weaker potency in that assay. Consider `CCCCCCCCCCCCOCCOCCOCCOCCOCCOCCOCCOCCO`, for which the 50% inhibitory concentration (IC50) worked out at 59 µM in the experiment with MOLT-4 and 29 µM in experiment [1].

Regarding `CCCCCCCCCCCCOCCOCCOCCOCCOCCOCCOCCOCCOCCOCCO`, the values for the IC50 (in the experiment with MOLT-4; in experiment [1]) were 41 µM and 26 µM, respectively.

Take `CCCCCCCCCCCCOCCOCCOCCOCCOCCOCCOCCOCCOCCOCCOCCOCCOCCOCCOCCOCCOCCOCCOCCOCCOCCOCCOCCOCCOCCO`: the IC50 was found to be 221 µM in the experiment with MOLT-4 and 40 µM in experiment [1].

Regarding `CCCCCCCCCCCCOCCOCCOCCOCCOCCOCCOCCOCCOCCOCCOCCOCCOCCOCCOCCOCCOCCOCCOCCOCCOCCO`, the IC50 came to 121 µM in the experiment with MOLT-4 and 34 µM in experiment [1].

For `CCCCCCCCCCCCCC(=O)OC[C@H](COP(=O)([O-])OCC[N+](C)(C)C)OC(=O)CCCCCCCCCCCCC` [DIMYRISTOYLPHOSPHATIDYLCHOLINE], the IC50 was determined as 293 µM in the experiment with MOLT-4 and 50 µM in experiment [1].

In the case of `CCCCCCCCCCCCOCCOCCOCCOCCO` [LAURETH 4], the IC50 with MOLT-4 amounted to 118 µM; in experiment [1], 37 µM.

Take `CCCCCCCCCCCCOCCOCCOCCOCCOCCOCCOCCOCCOCCOCCOCCOCCOCCOCCOCCOCCOCCOCCOCCOCCOCCOCCOCCO`: the IC50 stood at 190 µM in the experiment on MOLT-4 and 47 µM in experiment [1].

The values above are taken from ChEMBL document CHEMBL1156591, “Selective inhibitory effects of hybrid liposomes on the growth of HIV type 1-infected cells in vitro” (Bioorg Med Chem Lett, 2008).
